One may read the EC50 as the concentration at which the effect is half-maximal.

From patent US10208074B2, “Pyrazole compounds and method for making and using the compounds” (Rigel Pharmaceuticals, Inc., priority 2015, dated 2019) come the findings set out here.

The subject of one assay is IL-23 (p19/p40). Put plainly: IL23-p19 ELISA, Dendritic, LPS (compound screening using DC cells). As to conditions: PBMC-derived DC cells, IFNγ primed, LPS 1 μg/ml, 18 hours, 10 pt, read-out: IL23-p19 ELISA, Dendritic, LPS, 10 pt, EC50. The class given is cell-based, Human. The method in brief: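 Human PBMC-derived dendritic cells (7 d GM-CSF 100 ng/ml + IL-4 20 ng/ml), primed 24 h with IFNγ 50 ng/ml, pre-incubated 1 h with compound, then stimulated 18 h with LPS 1 μg/ml. Supernatant IL-23 measured by p19-capture/p40-detection chemiluminescent ELISA; CellTiter Glo checks cytotoxicity.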
(In an ELISA, binding on a coated surface is turned into a signal by an enzyme label.)

In the next assay the test system is IL-23p19. Put plainly: LPS induced IL23p19 in THP-1 cells (with IFNγ primed) assay. As to conditions: THP-1 cells, IFNγ primed, LPS 1 ug/mL, 18 hours, 10 pt, read-out: IL23-p19 ELISA, THP1-IFNy, LPS, 10 pt EC50. The class given is cell-based, Human. A digest of the protocol:
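THP-1 cells primed ~18 h with IFNγ (50 ng/mL), pre-incubated 1 h with compound at 37 °C, then stimulated 18 h with LPS (1 ug/mL final). Supernatant IL-23p19 measured by sandwich ELISA with chemiluminescent read-out; EC50 from curve fitting. Toxicity checked on the remaining cells by Cell Titer Glo.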

Where a name gives a salt, the structure may show the parent alone. Read-outs that look alike come from different tables or passages of the source.

Consider `CCO[C@H]1C[C@@H](n2cc(NC(=O)c3csc(-c4cn[nH]c4)n3)c(-c3ncccn3)n2)C1` [II-102, N-(1-((1,3-cis)-3-ethoxycyclobutyl)-3-(pyrimidin-2-yl)-1H-pyrazol-4-yl)-2-(1H-pyrazol-4-yl)thiazole-4-carboxamide], for which the EC50 worked out at 55.4 nM with IL-23 (p19/p40) (Homo sapiens, 18 h) and 61.9 nM with IL-23p19 (Homo sapiens, THP-1, 18 h).
As to `COCCn1cc(NC(=O)c2ccc(-c3cnn(C(=O)OC(C)(C)COCc4ccc(OC)cc4)c3)o2)c(-c2ccccn2)n1` [Compound I-22, 1-((4-methoxybenzyl)oxy)-2-methylpropan-2-yl 4-(5-((1-(2-methoxyethyl)-3-(pyridin-2-yl)-1H-pyrazol-4-yl)carbamoyl)furan-2-yl)-1H-pyrazole-1-carboxylate], the concentration for a half-maximal effect (EC50) with IL-23 (p19/p40) (Homo sapiens, 18 h) amounted to 1550 nM; with IL-23p19 (Homo sapiens, THP-1, 18 h), 204 nM.
Taken in the same sequence, the figures for `CCOCCn1cc(NC(=O)c2csc(-c3c(C)n[nH]c3C)n2)c(-c2ccccn2)n1` [II-23, 2-(3,5-dimethyl-1H-pyrazol-4-yl)-N-(1-(2-ethoxyethyl)-3-(pyridin-2-yl)-1H-pyrazol-4-yl)thiazole-4-carboxamide, formic acid salt] were 16300 nM and 4760 nM.
In the case of `COCCn1cc(NC(=O)c2ccc(-c3c[nH]nc3C)o2)c(-c2ncccn2)n1` [Compound I-8, N-(1-(2-methoxyethyl)-3-(pyrimidin-2-yl)-1H-pyrazol-4-yl)-5-(3-methyl-1H-pyrazol-4-yl)furan-2-carboxamide], the concentration for a half-maximal effect (EC50) with IL-23 (p19/p40) (Homo sapiens, 18 h) was 429 nM; with IL-23p19 (Homo sapiens, THP-1, 18 h), 880 nM.
Consider `COCCn1cc(NC(=O)c2csc(-c3cn[nH]c3)n2)c(-c2ccccn2)n1` [II-28, N-(1-(2-methoxyethyl)-3-(pyridin-2-yl)-1H-pyrazol-4-yl)-2-(1H-pyrazol-4-yl)thiazole-4-carboxamide], for which the half-maximal effective concentration (EC50) in the assay with IL-23 (p19/p40) (Homo sapiens, 18 h) is 63 nM; in the assay on IL-23p19 (Homo sapiens, THP-1, 18 h) it was 276 nM.
Taken in the same sequence, the figures for `COCCOCCn1cc(NC(=O)c2ccc(-c3cn[nH]c3)o2)c(-c2nccs2)n1` [Compound I-64, N-(1-(2-(2-methoxyethoxy)ethyl)-3-(thiazol-2-yl)-1H-pyrazol-4-yl)-5-(1H-pyrazol-4-yl)furan-2-carboxamide] were 366 nM and 77.7 nM.
As for `CCOCCn1cc(NC(=O)c2ccc(-c3cnn(CC)c3)o2)c(-c2ccccn2)n1` [Compound I-39, N-(1-(2-ethoxyethyl)-3-(pyridin-2-yl)-1H-pyrazol-4-yl)-5-(1-ethyl-1H-pyrazol-4-yl)furan-2-carboxamide formate], the EC50 in the assay on IL-23 (p19/p40) (Homo sapiens, 18 h) came to 4320 nM; in the assay with IL-23p19 (Homo sapiens, THP-1, 18 h), 1950 nM.
Taken in the same sequence, the figures for `O=C(Nc1cn([C@H]2C[C@@H](O)C2)nc1-c1ncccc1F)c1csc(-c2cn[nH]c2)n1` [II-65, N-(3-(3-fluoropyridin-2-yl)-1-((1s,3s)-3-hydroxycyclobutyl)-1H-pyrazol-4-yl)-2-(1H-pyrazol-4-yl)thiazole-4-carboxamide] were 48.9 nM and 37.3 nM.
Turning to `O=C(Nc1cn(C2CCOCC2)nc1-c1nccs1)c1ccc(-c2cn[nH]c2)o1` [Compound I-65, 5-(1H-pyrazol-4-yl)-N-(1-(tetrahydro-2H-pyran-4-yl)-3-(thiazol-2-yl)-1H-pyrazol-4-yl)furan-2-carboxamide], the results for the EC50 with IL-23 (p19/p40) and in the assay with IL-23p19 were 199 nM and 54.3 nM, respectively.
As to `O=C(Nc1cn(C2CN(C(=O)NC3CC3)C2)nc1-c1ccccn1)c1ccc(-c2cn[nH]c2)o1` [Compound I-87, 3-[4-{5-(1H-Pyrazol-4-yl)furan-2-carboxamido}-3-(pyridine-2-yl)-1H-pyrazol-1-yl]-N-cyclopropylazetidine-1-carboxamide, formate salt], the 50% effective concentration (EC50) was 105 nM in the assay on IL-23 (p19/p40) (Homo sapiens, 18 h) and 43.3 nM in the assay with IL-23p19 (Homo sapiens, THP-1, 18 h).
The like results for `O=C(Nc1cn([C@H]2CC[C@H](O)CC2)nc1-c1ccccn1)c1ccc(-c2cn[nH]c2)o1` [Compound I-126, N-(1-((1r,4r)-4-hydroxycyclohexyl)-3-(pyridin-2-yl)-1H-pyrazol-4-yl)-5-(1H-pyrazol-4-yl)furan-2-carboxamide formate] were, in that order, 21.5 nM and 81.9 nM.
The like results for `COCCn1cc(NC(=O)c2ccc(-c3cnn(C(=O)OC4(C)CC4)c3)o2)c(-c2ccccn2)n1` [Compound I-21, 1-methylcyclopropyl 4-(5-((1-(2-methoxyethyl)-3-(pyridin-2-yl)-1H-pyrazol-4-yl)carbamoyl)furan-2-yl)-1H-pyrazole-1-carboxylate] were, in that order, 458 nM and 201 nM.
Taken in the same sequence, the figures for `CCO[C@H]1C[C@@H](n2cc(NC(=O)c3ccc(-c4cn[nH]c4)o3)c(-c3ccccn3)n2)C1` [Compound I-28, N-(1-((1,3-cis)-3-ethoxycyclobutyl)-3-(pyridin-2-yl)-1H-pyrazol-4-yl)-5-(1H-pyrazol-4-yl)furan-2-carboxamide] were 21.8 nM and 49.7 nM.
As to `Cn1cc(NC(=O)c2ccc(-c3cn[nH]c3)o2)c(-c2ccccn2)n1` [Compound I-67, N-{1-Methyl-3-(pyridine-2-yl)-1H-pyrazol-4-yl}-5-(1H-pyrazol-4-yl)furan-2-carboxamide, formate salt], the EC50 in the assay with IL-23 (p19/p40) (formate salt) was 4.1 nM; with IL-23p19 (Homo sapiens, THP-1, 18 h), 72.3 nM.
For the molecule `O=C(Nc1cn([C@H]2C[C@@H](OCCF)C2)nc1-c1ccccn1)c1csc(-c2cn[nH]c2)n1` [II-130, N-(1-((1s,3s)-3-(2-fluoroethoxy)cyclobutyl)-3-(pyridin-2-yl)-1H-pyrazol-4-yl)-2-(1H-pyrazol-4-yl)thiazole-4-carboxamide], the 50% effective concentration (EC50) with IL-23 (p19/p40) (Homo sapiens, 18 h) is 89.8 nM; in the assay on IL-23p19 (Homo sapiens, THP-1, 18 h), 56 nM.
The like results for `O=C(Nc1cn(C(F)F)nc1-c1ccccn1)c1ccc(-c2cn[nH]c2)o1` [Compound I-115, N-(1-(difluoromethyl)-3-(pyridin-2-yl)-1H-pyrazol-4-yl)-5-(1H-pyrazol-4-yl)furan-2-carboxamide] were, in that order, 365 nM and 91.3 nM.
With `COCCn1cc(NC(=O)c2ccc(-c3cnn(COP(=O)(OC(C)(C)C)OC(C)(C)C)c3)o2)c(-c2ccccn2)n1` [Compound I-10, di-tert-butyl ((4-(5-((1-(2-methoxyethyl)-3-(pyridin-2-yl)-1H-pyrazol-4-yl)carbamoyl)furan-2-yl)-1H-pyrazol-1-yl)methyl) phosphate], the EC50 in the assay on IL-23 (p19/p40) (Homo sapiens, 18 h) was determined as 3270 nM; in the assay on IL-23p19 (Homo sapiens, THP-1, 18 h), 21900 nM.
On to `COCCOCCn1cc(NC(=O)c2ccc(-c3cn[nH]c3)o2)c(-c2ccccn2)n1` [Compound I-16, N-(1-(2-(2-methoxyethoxy)ethyl)-3-(pyridin-2-yl)-1H-pyrazol-4-yl)-5-(1H-pyrazol-4-yl)furan-2-carboxamide], for which the EC50 in the assay with IL-23 (p19/p40) (Homo sapiens, 18 h) was found to be 403 nM; in the assay on IL-23p19, 125 nM.
Turning to `CCO[C@H]1C[C@@H](n2cc(NC(=O)c3csc(-c4c[nH]nc4C)n3)c(-c3cccc(C(F)(F)F)n3)n2)C1` [II-99, N-(1-((1,3-cis)-3-ethoxycyclobutyl)-3-(6-(trifluoromethyl)pyridin-2-yl)-1H-pyrazol-4-yl)-2-(3-methyl-1H-pyrazol-4-yl)thiazole-4-carboxamide], the concentration for a half-maximal effect (EC50) in the assay with IL-23 (p19/p40) (Homo sapiens, 18 h) was 989 nM; in the assay on IL-23p19 (Homo sapiens, THP-1, 18 h) it was 420 nM.
The like results for `O=C(Nc1cn([C@H]2CC[C@H](O)C2)nc1-c1ccccn1)c1csc(-c2cn[nH]c2)n1` (relative stereo) [II-151, N-(1-((trans)-3-hydroxycyclopentyl)-3-(pyridin-2-yl)-1H-pyrazol-4-yl)-2-(1H-pyrazol-4-yl)thiazole-4-carboxamide] were, in that order, 62.2 nM and 64.9 nM.
Taken in the same sequence, the figures for `O=C(Nc1cn(C2CCOC2)nc1-c1nccs1)c1csc(-c2cn[nH]c2)n1` (stereo not drawn) [II-115, 2-(1H-pyrazol-4-yl)-N-(1-(tetrahydrofuran-3-yl)-3-(thiazol-2-yl)-1H-pyrazol-4-yl)thiazole-4-carboxamide] were 159 nM and 43.8 nM.
Turning to `O=C(Nc1cn([C@H]2CC[C@@H](O)CC2)nc1-c1ccccn1)c1ccc(-c2cn[nH]c2)o1` [Compound I-124, N-(1-((1s,4s)-4-hydroxycyclohexyl)-3-(pyridin-2-yl)-1H-pyrazol-4-yl)-5-(1H-pyrazol-4-yl)furan-2-carboxamide formate], the EC50 amounted to 101 nM in the assay with IL-23 (p19/p40) (Homo sapiens, 18 h) and 53.4 nM with IL-23p19 (Homo sapiens, THP-1, 18 h).
Consider `O=C(Nc1cn([C@H]2C[C@@H](OCC(F)(F)F)C2)nc1-c1ccccn1)c1csc(-c2cn[nH]c2)n1` [II-161, 2-(1H-pyrazol-4-yl)-N-(3-(pyridin-2-yl)-1-((cis)-3-(2,2,2-trifluoroethoxy)cyclobutyl)-1H-pyrazol-4-yl)thiazole-4-carboxamide], for which the 50% effective concentration (EC50) in the assay on IL-23 (p19/p40) (Homo sapiens, 18 h) worked out at 482 nM; in the assay on IL-23p19 (Homo sapiens, THP-1, 18 h) it was 112 nM.
The like results for `CC(C)(O)Cn1cc(NC(=O)c2csc(-c3cn[nH]c3)n2)c(-c2ccccn2)n1` [II-1, N-(1-(2-hydroxy-2-methylpropyl)-3-(pyridin-2-yl)-1H-pyrazol-4-yl)-2-(1H-pyrazol-4-yl)thiazole-4-carboxamide] were, in that order, 779 nM and 129 nM.
